Source: PMC10584170, “Machine learning-based phenotypic imaging to characterise the targetable biology of Plasmodium falciparum male gametocytes for the development of transmission-blocking antimalarials” (PLOS Pathogens, 2023)
Like-named read-outs stand apart in the source and are kept apart here.

Tests used:
[1] = system: P. falciparum male gametocytes; assay: P. falciparum Dual Gamete Formation Assay (PfDGFA), male readout (exflagellation); type: cell-based, Plasmodium falciparum NF54; details: for Selectivity Ratio M: HepG2 Tox50 versus male IC50; for Average inhibition male (%) / % inhibition male (individual replicates) R1 / % inhibition male (individual replicates) R3 / % inhibition male (individual replicates) R4 / inhibition at 2 µM: 24h preincubation with gametocytes; for IC50: PfDGFA, 24 h incubation with gametocytes before induction, exflagellation readout, read-out: Male IC50; for HitlevelM: number of replicates with >50% inhibition in the male readout
Procedure, shortened: (§1)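 First, day-14 P. falciparum NF54 gametocytes receive compound for 24 h at 37°C in 1% O2/3% CO2. Next, ookinete medium with Cy3 anti-Pfs25 triggers gametogenesis at 28°C and male exflagellation is imaged. Finally, after 24 h in the dark, Cy3-labelled females are imaged.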

[2] = system: P. falciparum female gametocytes; assay: P. falciparum Dual Gamete Formation Assay (PfDGFA), female readout (Pfs25-positive female gametes); type: cell-based, Plasmodium falciparum NF54; details: for Selectivity ratio F: HepG2 Tox50 versus female IC50; for Average inhibition female (%) / % inhibition female (individual replicates) R1 / % inhibition female (individual replicates) R3 / % inhibition female (individual replicates) R4 / inhibition at 2 µM: 24h preincubation with gametocytes; for IC50: PfDGFA, 24 h incubation with gametocytes before induction, female gamete readout, read-out: Female IC50; for HitlevelF: number of replicates with >50% inhibition in the female readout
Procedure, shortened: as §1

HepG2 cells = assay: HepG2 cytotoxicity counter-screen; details: cytotoxic activity against HepG2 cells
[3] = PfDGFA at 2µM, average of replicates
[4] = Plasmodium falciparum, PfDGFA at 2µM, average of replicates, read-out: Average inhibition male (%)
[5] = Plasmodium falciparum, PfDGFA at 2µM, replicate R1, read-out: % inhibition male (individual replicates) R1
[6] = Plasmodium falciparum, PfDGFA at 2µM, replicate R2, read-out: % inhibition male (individual replicates) R2
[7] = Plasmodium falciparum, PfDGFA at 2µM, replicate R3, read-out: % inhibition male (individual replicates) R3
[8] = Plasmodium falciparum, PfDGFA at 2µM, replicate R4, read-out: % inhibition male (individual replicates) R4
[9] = Plasmodium falciparum, PfDGFA at 2µM, average of replicates, read-out: Average inhibition female (%)
[10] = Plasmodium falciparum, PfDGFA at 2µM, replicate R1, read-out: % inhibition female (individual replicates) R1
[11] = Plasmodium falciparum, PfDGFA at 2µM, replicate R2, read-out: % inhibition female (individual replicates) R2
[12] = Plasmodium falciparum, PfDGFA at 2µM, replicate R3, read-out: % inhibition female (individual replicates) R3
[13] = Plasmodium falciparum, PfDGFA at 2µM, replicate R4, read-out: % inhibition female (individual replicates) R4
[14] = Plasmodium falciparum, 2µM, average of replicates, read-out: Average inhibition male (%)
[15] = Plasmodium falciparum, 2µM, replicate R1, read-out: % inhibition male (individual replicates) R1
[16] = Plasmodium falciparum, 2µM, replicate R2, read-out: % inhibition male (individual replicates) R2
[17] = Plasmodium falciparum, 2µM, replicate R4, read-out: % inhibition male (individual replicates) R4
[18] = Plasmodium falciparum, 2µM, average of replicates, read-out: Average inhibition female (%)
[19] = Plasmodium falciparum, 2µM, replicate R1, read-out: % inhibition female (individual replicates) R1
[20] = Plasmodium falciparum, 2µM, replicate R2, read-out: % inhibition female (individual replicates) R2
[21] = Plasmodium falciparum, 2µM, replicate R3, read-out: % inhibition female (individual replicates) R3
[22] = Plasmodium falciparum, 2µM, replicate R4, read-out: % inhibition female (individual replicates) R4

Row | Compound | IC50 [1] [nM] | IC50 [2] [nM] | IC50 ([1]; Plasmodium falciparum) [nM] | IC50 ([2]; Plasmodium falciparum) [nM] | Selectivity Ratio M [1] | Average inhibition male (%) [1, 3] [%] | % inhibition male (individual replicates) R1 ([1]; PfDGFA at 2µM, replicate R1) [%] | % inhibition male (individual replicates) R3 ([1]; PfDGFA at 2µM, replicate R3) [%] | % inhibition male (individual replicates) R4 ([1]; PfDGFA at 2µM, replicate R4) [%] | HitlevelM ([1]; 2µM) | Selectivity ratio F [2] | Average inhibition female (%) [2, 3] [%] | % inhibition female (individual replicates) R1 ([2]; PfDGFA at 2µM, replicate R1) [%] | % inhibition female (individual replicates) R3 ([2]; PfDGFA at 2µM, replicate R3) [%] | % inhibition female (individual replicates) R4 ([2]; PfDGFA at 2µM, replicate R4) [%] | HitlevelF ([2]; 2µM) | Tox50 (HepG2 cells) [µM] | Average inhibition male (%) ([1]; 2µM, average of replicates) | % inhibition male (individual replicates) R1 ([1]; 2µM, replicate R1) [%] | % inhibition male (individual replicates) R3 ([1]; 2µM, replicate R3) [%] | other results
1 | CC(Cc1ccc(OCCCCOc2ccccc2)cc1)NCCC1CCCN1C (stereo not drawn) [TCMDC-140017] | 660 | 1370 |  |  | 2.45 |  |  |  |  |  | 1.19 |  |  |  |  |  | 1.62 | 99.4 | 96.0 | 99.2 | % inhibition male (individual replicates) R4 ([1]; 2µM, replicate R4): 102.2%; Average inhibition female (%) ([2]; 2µM, average of replicates): 62.2%; % inhibition female (individual replicates) R1 ([2]; 2µM, replicate R1): 37.3%; % inhibition female (individual replicates) R3 ([2]; 2µM, replicate R3): 46.8%; % inhibition female (individual replicates) R4 ([2]; 2µM, replicate R4): 81.6%
2 | COc1cc(-c2nc(C(C)(C)CN)[nH]c2-c2ccncc2)ccc1Br.Cl [TCMDC-140674] |  |  | 1770 | 1610 | 24.67 |  |  |  |  | 3 | 27.17 |  |  |  |  | 2 | 43.66 |  |  |  | inhibition at 2 µM [1, 4]: 80.4%; inhibition at 2 µM [1, 5]: 38.8%; inhibition at 2 µM [1, 6]: 100%; inhibition at 2 µM [1, 7]: 83.7%; inhibition at 2 µM [1, 8]: 98.9%; inhibition at 2 µM [2, 9]: 51.9%; inhibition at 2 µM [2, 10]: 32.2%; inhibition at 2 µM [2, 11]: 85.8%; inhibition at 2 µM [2, 12]: 16.6%; inhibition at 2 µM [2, 13]: 72.9%
3 | CN(C)CCCOc1ccc(CN2CCC(c3c[nH]c4ccc(NCC5CCCCC5)cc34)CC2)cc1.O=C(O)C(F)(F)F [TCMDC-140737] | 1340 | 4940 |  |  | 6.13 |  |  |  |  |  | 1.66 |  |  |  |  |  | 8.22 | 93.4 | 100.1 | 96.2 | % inhibition male (individual replicates) R4 ([1]; 2µM, replicate R4): 94.6%; Average inhibition female (%) ([2]; 2µM, average of replicates): 62.2%; % inhibition female (individual replicates) R1 ([2]; 2µM, replicate R1): 56.9%; % inhibition female (individual replicates) R3 ([2]; 2µM, replicate R3): 56.2%; % inhibition female (individual replicates) R4 ([2]; 2µM, replicate R4): 81.1%
4 | CCN(CC)CCN(Cc1ccc(-c2ccc(C(F)(F)F)cc2)cc1)C(=O)Cn1cc(Cc2cnn(C)c2)c(=O)nc1/C=C/c1ccc(F)cc1.O=C(O)C(O)C(O)C(=O)O [TCMDC-140741] |  |  | 850 | 7160 | 19.3 |  |  |  |  |  | 2.29 |  |  |  |  |  | 16.37 |  |  |  | inhibition at 2 µM [1, 14]: 90.1%; inhibition at 2 µM [1, 15]: 92.2%; inhibition at 2 µM [1, 16]: 91.9%; inhibition at 2 µM ([1]; Plasmodium falciparum, 2µM, replicate R3, read-out: % inhibition male (individual replicates) R3): 76%; inhibition at 2 µM [1, 17]: 100%; inhibition at 2 µM [2, 18]: 44.8%; inhibition at 2 µM [2, 19]: 41.2%; inhibition at 2 µM [2, 20]: 41.2%; inhibition at 2 µM [2, 21]: 34.9%; inhibition at 2 µM [2, 22]: 61.9%
5 | CCN(CC)CCOc1ccc(Nc2ncc3cc(-c4c(Cl)cccc4Cl)c(=O)n(C)c3n2)cc1 [TCMDC-140940] |  |  | 1930 | > 10000 | 1.38 |  |  |  |  | 4 | 0.27 |  |  |  |  | 0 | 2.66 |  |  |  | inhibition at 2 µM [1, 4]: 72.1%; inhibition at 2 µM [1, 5]: 72.9%; inhibition at 2 µM [1, 6]: 64.9%; inhibition at 2 µM [1, 7]: 74%; inhibition at 2 µM [1, 8]: 76.8%; inhibition at 2 µM [2, 9]: -0.6%; inhibition at 2 µM [2, 10]: -7.5%; inhibition at 2 µM [2, 11]: 1.2%; inhibition at 2 µM [2, 12]: -12%; inhibition at 2 µM [2, 13]: 15.8%
6 | CCN(CC)CCN(Cc1ccc(-c2ccc(C(F)(F)F)cc2)cc1)C(=O)Cn1cc(Cc2cnn(C)c2)c(=O)nc1/C=C/c1cccc(F)c1F.O=C(O)C(O)C(O)C(=O)O [TCMDC-140964] |  |  | 630 | 4100 | 20.63 |  |  |  |  |  | 3.16 |  |  |  |  |  | 12.97 |  |  |  | inhibition at 2 µM [1, 14]: 99.3%; inhibition at 2 µM [1, 15]: 98.8%; inhibition at 2 µM [1, 16]: 97.8%; inhibition at 2 µM [1, 17]: 101%; inhibition at 2 µM [2, 18]: 36.2%; inhibition at 2 µM [2, 19]: 34%; inhibition at 2 µM [2, 20]: 38.6%; inhibition at 2 µM [2, 21]: 28.7%; inhibition at 2 µM [2, 22]: 43.5%

More lines, main results first:

Row | IC50 [1] [nM] | IC50 [2] [nM] | IC50 ([1]; Plasmodium falciparum) [nM] | IC50 ([2]; Plasmodium falciparum) [nM] | Compound | Selectivity Ratio M [1] | Average inhibition male (%) [1, 3] [%] | % inhibition male (individual replicates) R1 ([1]; PfDGFA at 2µM, replicate R1) [%] | % inhibition male (individual replicates) R3 ([1]; PfDGFA at 2µM, replicate R3) [%] | % inhibition male (individual replicates) R4 ([1]; PfDGFA at 2µM, replicate R4) [%] | HitlevelM ([1]; 2µM) | Selectivity ratio F [2] | Average inhibition female (%) [2, 3] [%] | % inhibition female (individual replicates) R1 ([2]; PfDGFA at 2µM, replicate R1) [%] | % inhibition female (individual replicates) R3 ([2]; PfDGFA at 2µM, replicate R3) [%] | % inhibition female (individual replicates) R4 ([2]; PfDGFA at 2µM, replicate R4) [%] | HitlevelF ([2]; 2µM) | Tox50 (HepG2 cells) [µM] | Average inhibition male (%) ([1]; 2µM, average of replicates) | % inhibition male (individual replicates) R1 ([1]; 2µM, replicate R1) [%] | % inhibition male (individual replicates) R3 ([1]; 2µM, replicate R3) [%] | other results
7 | 1880 | 3730 |  |  | CC(Cc1ccc(NC(=O)c2ccc(CNCCCCc3ccccc3)cc2)cc1)NCCc1cccc(Cl)c1.Cl (stereo not drawn) [TCMDC-139866] | 2.02 | 80.8 | 85.9 | 43.9 | 97.6 | 3 | 1.02 | 35.2 | 34.1 | 6.7 | 45.1 | 1 | 3.81 |  |  |  | 
8 | 1530 | 3700 |  |  | CN(CCCCN)Cc1ccc(-c2ccc(Cl)cc2)cc1 [TCMDC-140123] | 4.36 | 72.2 | 73.4 | 55.2 | 83.6 | 4 | 1.81 | 20.6 | 26.7 | 14.8 | 10.1 | 0 | 6.69 |  |  |  | 
9 | 760 | 2170 |  |  | N=C(N)Nc1nc(-c2ccc(NCc3ccc(CNc4cccc(-c5csc(NC(=N)N)n5)c4)cc3)cc2)cs1 [TCMDC-140699] | 7.68 |  |  |  |  |  | 2.7 |  |  |  |  |  | 5.85 | 99.5 | 99.4 | 98.0 | % inhibition male (individual replicates) R4 ([1]; 2µM, replicate R4): 98.9%; Average inhibition female (%) ([2]; 2µM, average of replicates): 56.1%; % inhibition female (individual replicates) R1 ([2]; 2µM, replicate R1): 34.4%; % inhibition female (individual replicates) R3 ([2]; 2µM, replicate R3): 32.5%; % inhibition female (individual replicates) R4 ([2]; 2µM, replicate R4): 82.5%
10 | 1210 | 5360 |  |  | CC(C)(C)c1ccc(CNC(=O)c2ccc(CNC3CCC(N)CC3)s2)cc1 (stereo not drawn) [TCMDC-140777] | 7.72 | 76.0 | 74.4 | 56.4 | 93.6 | 4 | 1.74 | 32.6 | 23.5 | 26.9 | 56.3 | 1 | 9.32 |  |  |  | 
